Measured values taken from PubChem BioAssay (NCI).
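Compound exposure: 48 hours, 5 concentrations, 96-well plates. GI50 is the concentration that inhibits growth by half. TGI: total growth inhibition.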

Legend:
Assay in all cases: NCI-60 cell line screen, 48 h
786-0 renal = tested on: 786-0 renal
NCI-H23 lung = tested on: NCI-H23 lung
EKVX NSCLC = tested on: EKVX NSCLC
IGROV1 ovarian = tested on: IGROV1 ovarian
OVCAR-4 ovarian = tested on: OVCAR-4 ovarian
CCRF-CEM leukemia = tested on: CCRF-CEM leukemia
SW-620 colon = tested on: SW-620 colon
SF-268 CNS = tested on: SF-268 CNS
HCC-2998 colon = tested on: HCC-2998 colon
NCI-H522 lung = tested on: NCI-H522 lung
PC-3 prostate = tested on: PC-3 prostate
UO-31 renal = tested on: UO-31 renal
UACC-62 melanoma = tested on: UACC-62 melanoma
SK-MEL-5 melanoma = tested on: SK-MEL-5 melanoma
UACC-257 melanoma = tested on: UACC-257 melanoma
SNB-19 CNS = tested on: SNB-19 CNS
A498 renal = tested on: A498 renal
K-562 leukemia = tested on: K-562 leukemia
HT29 colon = tested on: HT29 colon
HOP-92 NSCLC = tested on: HOP-92 NSCLC
MOLT-4 leukemia = tested on: MOLT-4 leukemia
A549 NSCLC = tested on: A549 NSCLC
BT-549 breast = tested on: BT-549 breast
ACHN renal = tested on: ACHN renal
CAKI-1 renal = tested on: CAKI-1 renal
HS 578T breast = tested on: HS 578T breast
SR leukemia = tested on: SR leukemia
MDA-MB-435 = tested on: MDA-MB-435
RXF 393 renal = tested on: RXF 393 renal
SK-OV-3 ovarian = tested on: SK-OV-3 ovarian
NCI-H460 lung = tested on: NCI-H460 lung
U251 CNS = tested on: U251 CNS
SK-MEL-2 melanoma = tested on: SK-MEL-2 melanoma
DU-145 prostate = tested on: DU-145 prostate
SF-295 CNS = tested on: SF-295 CNS
T-47D breast = tested on: T-47D breast
OVCAR-8 ovarian = tested on: OVCAR-8 ovarian
OVCAR-5 ovarian = tested on: OVCAR-5 ovarian
NCI-H226 lung = tested on: NCI-H226 lung
COLO 205 colon = tested on: COLO 205 colon
MDA-MB-231 breast = tested on: MDA-MB-231 breast
NCI/ADR-RES ovarian = tested on: NCI/ADR-RES ovarian
SF-539 CNS = tested on: SF-539 CNS
TK-10 renal = tested on: TK-10 renal
HL-60(TB) leukemia = tested on: HL-60(TB) leukemia
HCT-116 colon = tested on: HCT-116 colon
SK-MEL-28 melanoma = tested on: SK-MEL-28 melanoma
HCT-15 colon = tested on: HCT-15 colon
OVCAR-3 ovarian = tested on: OVCAR-3 ovarian
HOP-62 NSCLC = tested on: HOP-62 NSCLC
KM12 colon = tested on: KM12 colon
SN12C renal = tested on: SN12C renal
RPMI-8226 leukemia = tested on: RPMI-8226 leukemia
SNB-75 CNS = tested on: SNB-75 CNS
M14 melanoma = tested on: M14 melanoma
MCF7 breast = tested on: MCF7 breast
LOX IMVI melanoma = tested on: LOX IMVI melanoma
MALME-3M melanoma = tested on: MALME-3M melanoma

Compound: COc1ccc(CCCCl)c(C2=NCCc3cc(OC)c(OC)cc32)c1
- TGI (786-0 renal): > 100 µM
- TGI (NCI-H23 lung): > 100 µM
- TGI (EKVX NSCLC): > 100 µM
- TGI (IGROV1 ovarian): > 100 µM
- TGI (OVCAR-4 ovarian): > 100 µM
- TGI (CCRF-CEM leukemia): > 100 µM
- TGI (SW-620 colon): > 100 µM
- TGI (SF-268 CNS): > 100 µM
- TGI (HCC-2998 colon): > 100 µM
- TGI (NCI-H522 lung): > 100 µM
- TGI (PC-3 prostate): > 100 µM
- TGI (UO-31 renal): > 100 µM
- TGI (UACC-62 melanoma): > 100 µM
- TGI (SK-MEL-5 melanoma): 59.4 µM
- TGI (UACC-257 melanoma): > 100 µM
- TGI (SNB-19 CNS): > 100 µM
- TGI (A498 renal): > 100 µM
- TGI (K-562 leukemia): > 100 µM
- TGI (HT29 colon): > 100 µM
- TGI (HOP-92 NSCLC): > 100 µM
- TGI (MOLT-4 leukemia): > 100 µM
- TGI (A549 NSCLC): > 100 µM
- TGI (BT-549 breast): > 100 µM
- TGI (ACHN renal): > 100 µM
- TGI (CAKI-1 renal): > 100 µM
- TGI (HS 578T breast): > 100 µM
- TGI (SR leukemia): > 100 µM
- TGI (MDA-MB-435): > 100 µM
- TGI (RXF 393 renal): > 100 µM
- TGI (SK-OV-3 ovarian): > 100 µM
- TGI (NCI-H460 lung): > 100 µM
- TGI (U251 CNS): > 100 µM
- TGI (SK-MEL-2 melanoma): > 100 µM
- TGI (DU-145 prostate): > 100 µM
- TGI (SF-295 CNS): > 100 µM
- TGI (T-47D breast): > 100 µM
- TGI (OVCAR-8 ovarian): > 100 µM
- TGI (OVCAR-5 ovarian): > 100 µM
- TGI (NCI-H226 lung): > 100 µM
- TGI (COLO 205 colon): 68.9 µM
- TGI (MDA-MB-231 breast): > 100 µM
- TGI (NCI/ADR-RES ovarian): > 100 µM
- TGI (SF-539 CNS): > 100 µM
- TGI (TK-10 renal): > 100 µM
- TGI (HL-60(TB) leukemia): > 100 µM
- TGI (HCT-116 colon): > 100 µM
- TGI (SK-MEL-28 melanoma): > 100 µM
- TGI (HCT-15 colon): > 100 µM
- TGI (OVCAR-3 ovarian): > 100 µM
- TGI (HOP-62 NSCLC): > 100 µM
- TGI (KM12 colon): > 100 µM
- TGI (SN12C renal): > 100 µM
- TGI (RPMI-8226 leukemia): 28.5 µM
- TGI (SNB-75 CNS): > 100 µM
- TGI (M14 melanoma): > 100 µM
- TGI (MCF7 breast): > 100 µM

Compound: O=c1[nH]nnc2c1ncn2C1OC(CO)C(O)C1O (stereo not drawn)
- GI50 (786-0 renal): 24 µM
- TGI (786-0 renal): > 100 µM
- GI50 (NCI-H23 lung): 14.5 µM
- TGI (NCI-H23 lung): > 100 µM
- GI50 (IGROV1 ovarian): 2.96 µM
- TGI (IGROV1 ovarian): > 100 µM
- GI50 (OVCAR-4 ovarian): 5.02 µM
- TGI (OVCAR-4 ovarian): > 100 µM
- GI50 (CCRF-CEM leukemia): 3.19 µM
- TGI (CCRF-CEM leukemia): > 100 µM
- GI50 (SW-620 colon): 10.6 µM
- TGI (SW-620 colon): > 100 µM
- GI50 (SF-268 CNS): 19.1 µM
- TGI (SF-268 CNS): > 100 µM
- GI50 (HCC-2998 colon): 4.12 µM
- TGI (HCC-2998 colon): > 100 µM
- GI50 (NCI-H522 lung): 6.49 µM
- TGI (NCI-H522 lung): > 100 µM
- GI50 (LOX IMVI melanoma): 2.23 µM
- TGI (LOX IMVI melanoma): > 100 µM
- GI50 (PC-3 prostate): 2.93 µM
- TGI (PC-3 prostate): > 100 µM
- GI50 (UO-31 renal): 3.18 µM
- TGI (UO-31 renal): > 100 µM
- GI50 (MALME-3M melanoma): 7.25 µM
- TGI (MALME-3M melanoma): > 100 µM
- GI50 (UACC-62 melanoma): 4.95 µM
- TGI (UACC-62 melanoma): > 100 µM
- GI50 (SK-MEL-5 melanoma): 32.9 µM
- TGI (SK-MEL-5 melanoma): > 100 µM
- GI50 (UACC-257 melanoma): 14.1 µM
- TGI (UACC-257 melanoma): > 100 µM
- GI50 (SNB-19 CNS): > 100 µM
- TGI (SNB-19 CNS): > 100 µM
- GI50 (A498 renal): 61.3 µM
- TGI (A498 renal): > 100 µM
- GI50 (K-562 leukemia): 2.26 µM
- TGI (K-562 leukemia): > 100 µM
- GI50 (HT29 colon): 13 µM
- TGI (HT29 colon): > 100 µM
- GI50 (MOLT-4 leukemia): 2.07 µM
- TGI (MOLT-4 leukemia): 36 µM
- GI50 (A549 NSCLC): 75.7 µM
- TGI (A549 NSCLC): > 100 µM
- GI50 (BT-549 breast): > 100 µM
- TGI (BT-549 breast): > 100 µM
- GI50 (ACHN renal): 1.8 µM
- TGI (ACHN renal): > 100 µM
- GI50 (CAKI-1 renal): 0.998 µM
- TGI (CAKI-1 renal): 32.5 µM
- GI50 (HS 578T breast): > 100 µM
- TGI (HS 578T breast): > 100 µM
- GI50 (SR leukemia): 3.21 µM
- TGI (SR leukemia): 59.7 µM
- GI50 (MDA-MB-435): 14.2 µM
- TGI (MDA-MB-435): > 100 µM
- GI50 (RXF 393 renal): 14.1 µM
- TGI (RXF 393 renal): > 100 µM
- GI50 (SK-OV-3 ovarian): 0.881 µM
- TGI (SK-OV-3 ovarian): > 100 µM
- GI50 (NCI-H460 lung): 2.82 µM
- TGI (NCI-H460 lung): > 100 µM
- GI50 (U251 CNS): 41.5 µM
- TGI (U251 CNS): > 100 µM
- GI50 (SK-MEL-2 melanoma): 0.707 µM
- TGI (SK-MEL-2 melanoma): 12.2 µM
- GI50 (DU-145 prostate): 1.38 µM
- TGI (DU-145 prostate): > 100 µM
- GI50 (SF-295 CNS): 1.65 µM
- TGI (SF-295 CNS): 47 µM
- GI50 (T-47D breast): 38.8 µM
- TGI (T-47D breast): > 100 µM
- GI50 (OVCAR-8 ovarian): 4.73 µM
- TGI (OVCAR-8 ovarian): > 100 µM
- GI50 (OVCAR-5 ovarian): 74.9 µM
- TGI (OVCAR-5 ovarian): > 100 µM
- GI50 (NCI-H226 lung): 10.3 µM
- TGI (NCI-H226 lung): > 100 µM
- GI50 (COLO 205 colon): 6.09 µM
- TGI (COLO 205 colon): > 100 µM
- GI50 (MDA-MB-231 breast): 4.91 µM
- TGI (MDA-MB-231 breast): 76.9 µM
- GI50 (NCI/ADR-RES ovarian): 7.74 µM
- TGI (NCI/ADR-RES ovarian): > 100 µM
- GI50 (SF-539 CNS): 14.5 µM
- TGI (SF-539 CNS): > 100 µM
- GI50 (TK-10 renal): 2.98 µM
- TGI (TK-10 renal): > 100 µM
- GI50 (HL-60(TB) leukemia): 1.39 µM
- TGI (HL-60(TB) leukemia): 83.3 µM
- GI50 (HCT-116 colon): 7.59 µM
- TGI (HCT-116 colon): > 100 µM
- GI50 (SK-MEL-28 melanoma): 68.3 µM
- TGI (SK-MEL-28 melanoma): > 100 µM
- GI50 (HCT-15 colon): 8.04 µM
- TGI (HCT-15 colon): > 100 µM
- GI50 (OVCAR-3 ovarian): 7.75 µM
- TGI (OVCAR-3 ovarian): > 100 µM
- GI50 (HOP-62 NSCLC): 10.7 µM
- TGI (HOP-62 NSCLC): > 100 µM
- GI50 (KM12 colon): 11.8 µM
- TGI (KM12 colon): > 100 µM
- GI50 (SN12C renal): 38.3 µM
- TGI (SN12C renal): > 100 µM
- GI50 (RPMI-8226 leukemia): 6.71 µM
- TGI (RPMI-8226 leukemia): > 100 µM
- GI50 (SNB-75 CNS): 0.99 µM
- TGI (SNB-75 CNS): > 100 µM
- GI50 (M14 melanoma): 3.57 µM
- TGI (M14 melanoma): > 100 µM
- GI50 (MCF7 breast): 17.3 µM
- TGI (MCF7 breast): > 100 µM
